The source of these data is patent US9180107B2 (NANOPHARMACEUTICALS LLC, priority 2009, dated 2015).

pIC50: −log10 of the molar value. Where two headings read alike, the source gives them in different places. Marks after values point to notes of the source that are not given here.

In experiment [1] the test system is Human adenoid cystic carcinoma TGS112T cells. The experiment in a line: [3H]-thymidine incorporation. In kind it is cell-based. How it is done: TGS112T cells were seeded in 24-well trays and exposed to 10% hormone-depleted FBS-supplemented medium for 2 d, then treated with 0.25% hormone-depleted FBS-supplemented medium prior to starting the experiments. Aliquots of cells were treated with T4, tetrac or nano-tetrac as indicated, as well as 1 μCi [^3H]-thymidine (final concentration, 13 nM) for 24 h. Cells were then washed twice with cold PBS. TCA (5%, 1 mL) was added and the plate was held at 4° C. for 30 min. The precipitate was washed twice with cold ethanol; 2% SDS (1 mL) was added to each well and the TCA-precipitable radioactivity was quantitated in a liquid scintillation counter.
Human adenoid cystic carcinoma TGS112T cells were cultured in medium that contained 0.25% hormone-stripped serum for 2 d and then treated with 10^−7 M tetrac or nano-tetrac for 30 min prior institution of 10^−7 M T4 treatment for 24 h. Nuclear proteins were separated by SDS-PAGE followed by western blot analysis with proliferating-cell nuclear antigen (PCNA) antibody. Thyroid hormone-induced PCNA accumulation was inhibited by tetrac. (See FIG. 6A). […] (See FIG. 6A). Inhibition of thyroid hormone-induced proliferation was confirmed by inhibition by tetrac and nano-tetrac of thyroid hormone-induced accumulation and [^3H]-thymidine incorporation. (See FIG. 6B). […] (See FIG. 6B). […] The effect of nano-tetrac and tetrac on cell proliferation was examined by counting TGS112T cells which were treated daily with 10^−6 M tetrac or 10^−6 M nano-tetrac. […] (See FIG. 6C).

For experiment [2], the system named is human breast cancer MDA-MB-231 cells (MDA-MB). The experiment in a line: Anti-proliferation (total cell counts) in bellows cell culture system with pharmacodynamic modeling. The experiment is classed as cell-based. The conditions noted are these: for pIC50 / Imaxk (maximum effect on rate of growth) / ImaxR (maximum effect on success of replication): MDA-MB 231. How it is done: Each cell culture system is a compressible (bellows) 500 mL bottle which contains cell culture medium and specially-treated polymer flakes to which cells spontaneously attach and grow. Through moving bellows and porous membranes, the level of the medium in the bottle changes periodically. Consequently, the cells are alternately submerged in the culture medium, then exposed to 5% CO2/95% air which creates a dynamic interface between air and medium on the cell surface that maximizes nutrient uptake and oxygen transfer. The system provides a low shear, high aeration and foam-free culture environment. Proprietary treatment of the surfaces of the flakes enables seating and harvesting of cells and secreted proteins are readily isolated from the perfusate.
In a non-perfusion bellows cell culture system that was also used, the medium in each bottle was replaced by fresh medium every 24 h. In the perfusion bellows cell culture system, medium was progressively refreshed over 24 h, i.e., one complete change of medium occurred over 24 h.
In establishing the system, 5×10^7 cells were seeded in perfusion and non-perfusion bellows bottles and incubated overnight at 37° C. After that, flakes were harvested, trypsinized and cells were collected. Cell numbers were counted. […] For experiments, the perfusion bellows cell culture system was run for 2 d prior to starting experiments. […] Cell cultures were then exposed to 1% FBS-containing medium. Tetrac or nano-tetrac was added to the medium in the reservoir bottle to achieve the final concentrations reported for each experiment.
The time course of cell counts of the various cancer lines treated with different concentrations of tetrac or nano-tetrac was modeled by utilizing the pooled approach in NONMEM VI (version 6.2). All time points and treatment arms within each experiment were modeled simultaneously. A mechanism-based model (see Bulitta et al., 2009. Antimicrob. Agents Chemother. 53:46-56) was adapted to describe the proliferation of cancer cells and the inhibition of proliferation by tetrac. This model assumes two populations of cells in different phases of the cell cycle: cells that are preparing for replication (phase 1) and cells that are immediately “pre-replication” (phase 2). Cells transition from phase 1 to phase 2 by a first-order growth rate constant, while replication from phase 2 to phase 1 is assumed to be fast (see FIG. 2).
[formula] [formula] [formula] where C1 is the number of cells in phase 1, C2 the number of cells in phase 2, k21 the first order rate constant for replication (transition from phase 2 to phase 1), and k12 the first-order growth rate constant for transition from phase 1 to phase 2. The total number of cells Ct is the sum of C1 and C2. Rep is the replication efficiency factor which is described by:
[formula] where Cmax is the maximum number of cells. Without tetrac, the replication efficiency factor approaches 2, which reflects a 100% probability of successful replication. InhR describes the inhibitory effect of tetrac on the probability of successful replication:
[formula] Where ImaxR is the maximum effect of tetrac on probability of successful replication and IC50R is the tetrac concentration needed to achieve a half-maximal effect. Inhk describes the inhibitory effect of tetrac on the rate of growth:
[formula] Where Imaxk is the maximum effect of tetrac on rate of growth and IC50k is the tetrac concentration needed to achieve a half-maximal effect. Results

The subject of another experiment is MDA-MB cells. The experiment in a line: Apoptosis by flow cytometry (FACS) in perfusion bellows culture. The following applies: for induced apoptosis compared to untreated control: day 2. The experiment is classed as cell-based, human. How it is done:
MDA-MB cells grown in perfusion bellows cell culture were treated with different concentrations of tetrac (10^−7 M to 10^−5 M) daily. Cells were harvested on the day indicated. Two million cells of each sample were prepared for flow cytometry. Flow cytometry was conducted as described in Example 1, infra.
Cells were harvested from flakes by trypsinization, washed with PBS and were resuspended in 200 μL PBS (1×10^5-1×10^6 cells). To quantify cellular DNA content, cells were permeabilized by fixation with 70% ethanol for 30 min at 4° C. Samples can be stored in 70% ethanol at −20° C. for several weeks prior to propidium iodide (PI) staining and flow cytometric analysis. If cellular DNA quantification was performed on the same day of cell harvest, the cells were washed after permeabilization in PBS and resuspended in 500 μL PBS. Then 2.5 μL RNase (DNase-free) was added to the cell suspension and incubation was carried out at 37° C. for 30 min. The cell suspension was chilled on ice to 4° C. and 50 μL propidium iodide (PI) was added to the cell suspension. Samples were then kept in the dark at room temperature for 30 min, after which they were subjected to flow cytometry. Samples were analyzed on FACSCalibur™ (Becton Dickinson), using CellQuest software to determine DNA content. Fluorescence-activated cell sorting (FACS) analysis was performed using Annexin V-FITC and PI. The relative percentages of cells in G1, S, or G2/M phase were calculated from FL-2 histograms using ModFit LT software.
Cells were harvested for FACS analysis 1-5 d after treatment with 10^−7 to 10^−5 M tetrac. […] (See FIG. 7). By day 2, tetrac, 10^−7M and 10^−6M, induced apoptosis by 2.5-fold as compared to untreated control. Similar results were obtained after 4 d of treatment of tetrac. […] (See FIG. 7).
In general terms: In flow cytometry, cells or beads pass a laser one at a time.

The mark [3] stands for this setting: study 2, rich data from one single study over 19 days.

For the molecule `O=C(O)Cc1cc(I)c(Oc2cc(I)c(O)c(I)c2)c(I)c1` [tetrac, Tetraiodothyroacetic acid], the “reduction of T4-induced thymidine incorporation” value in experiment [1] (10^−7 M with 10^−7 M T4, 24 h) stood at 5 fold. The “effect of agent alone on thymidine incorporation” value in experiment [1] (10^−7 M, 24 h) was “stimulated thymidine incorporation”. Also, the pIC50 in experiment [2] (Homo sapiens, 456 h, study 2, rich data from one single study over 19 days, read-out: IC50R (effect on success of replication)) is 7.06; in experiment [2] (Homo sapiens, 456 h, study 2, rich data from one single study over 19 days, read-out: IC50k (effect on rate of growth)), 5.29; in experiment [2] (Homo sapiens, study 1, sparse sampling, data pooled from two studies, read-out: IC50R (effect on success of replication)), 5.36; in experiment [2] (Homo sapiens, study 1, sparse sampling, data pooled from two studies, read-out: IC50k (effect on rate of growth)), 8.12. For the same molecule, the inhibition at 0.1 µM in experiment [2] (Homo sapiens, MDA-MB-231, 192 h, read-out: inhibitory effect on cell growth) came to 38%. The “Imaxk (maximum effect on rate of growth)” value in experiment [2] (study 1, sparse sampling, data pooled from two studies) is recorded as 0.19; in experiment [2] (setting [3]), 0.85. In addition, the “ImaxR (maximum effect on success of replication)” value in experiment [2] (study 1, Imax at time = 0, decreases with time) was 0.53^a; in experiment [2] (setting [3]), 0.20. Further, the “increase of apoptotic cells compared to untreated control cells” value with MDA-MB cells (10^−5 M, 1 d) was found to be 10 fold. The “induced apoptosis compared to untreated control” value with MDA-MB cells (10^−6M) and in the experiment with MDA-MB cells (10^−7M) was 2.5 fold throughout.
